This is an account of results in publication PMC9161086, “Water-Soluble Trichogin GA IV-Derived Peptaibols Protect Tomato Plants From Botrytis cinerea Infection With Limited Impact on Plant Defenses” (Frontiers in Plant Science, 2022).

The nature of the series: Hydrophilicity evaluated from HPLC retention times. Format: physicochemical. The conditions noted are these: comparison to native Trichogin GA IV, C18 column Phenomenex Jupiter 5 μm, 300 Å, 250 × 4.5 mm, gradient 60%–100% B in 30 min, A H2O/CH3CN 9:1 0.05% TFA, B CH3CN/H2O 9:1 0.05% TFA.

For the substance “1-octanoyl-Aib-Gly-Leu-Aib-Gly-Gly-Leu-Aib-Gly-Ile-Lol [Trichogin GA IV, 11-residue lipopeptaibol naturally produced by Trichoderma longibrachiatum]”, the Hydrophilicity result is “Native”.
